Source: DBAASP
Converted amounts (≈) assume the structure as drawn. Values belong to the molecule of their own block, whether it stands above or below them.

What was measured:
Assay in all cases: ≥ marks a high value that may be exact or a test limit, other limits are often not marked, values filed in µg/mL are converted to µM
[1] = test system: Candida albicans NCPF 1467
[2] = test system: Escherichia coli NCTC 10418
[3] = test system: Staphylococcus aureus ATCC 12493
[4] = test system: Staphylococcus aureus NCTC 10788
[5] = test system: Escherichia coli ATCC 11775
[6] = test system: Escherichia coli ATCC 25922
[7] = test system: Escherichia coli ATCC 35218
[8] = test system: Salmonella enterica subsp. enterica serovar Typhi Vi+
[9] = test system: Salmonella enterica subsp. enterica serovar Typhimurium ATCC 14028
[10] = test system: Acinetobacter baumannii
[11] = test system: Bacillus subtilis CGMCC 1.3376
[12] = test system: Escherichia coli CGMCC 1.8732
[13] = test system: Klebsiella pneumoniae CGMCC 1.1736
[14] = test system: Pseudomonas aeruginosa CGMCC 1.2421
[15] = test system: Staphylococcus aureus CGMCC 1.8721
[16] = test system: Staphylococcus epidermidis CGMCC 1.4260
[17] = test system: Enterococcus faecalis ATCC 29212
[18] = test system: Escherichia coli ML-35p
[19] = test system: Pseudomonas aeruginosa ATCC 27853
[20] = test system: Staphylococcus aureus ATCC 25923
[21] = test system: Staphylococcus aureus ATCC BAA-44
[22] = test system: Acinetobacter baumannii Q12-0809
[23] = test system: Acinetobacter baumannii Q12-0867
[24] = test system: Acinetobacter baumannii Q13-0717
[25] = test system: Campylobacter jejuni NCTC 11351
[26] = test system: Campylobacter jejuni
[27] = test system: Enterococcus faecalis JH-2-2
[28] = test system: Escherichia coli K-12
[29] = test system: Escherichia coli
[30] = test system: Klebsiella pneumoniae ATCC 700603
[31] = test system: Klebsiella pneumoniae NCTC 13442
[32] = test system: Klebsiella pneumoniae Q14-0095
[33] = test system: Klebsiella pneumoniae Q14-0285
[34] = test system: Listeria monocytogenes NCTC 11994
[35] = test system: Pseudomonas aeruginosa PAO1
[36] = test system: Pseudomonas aeruginosa Q12-0581
[37] = test system: Pseudomonas aeruginosa Q14-0208
[38] = test system: Pseudomonas aeruginosa Q14-0890
[39] = test system: Salmonella typhimurium SL1344
[40] = test system: Staphylococcus aureus ATCC 29213
[41] = test system: Staphylococcus aureus MRSA-15
[42] = test system: Staphylococcus aureus NCTC 12493
[43] = test system: Staphylococcus aureus Q14-0320
[44] = test system: Staphylococcus aureus RN4220

Structure (SMILES): CC[C@H](C)[C@H](NC(=O)[C@@H]1CCCN1C(=O)[C@H](CCCN=C(N)N)NC(=O)[C@@H]1CCCN1C(=O)[C@H](Cc1cnc[nH]1)NC(=O)[C@H](CO)NC(=O)[C@H](CO)NC(=O)[C@@H]1CCCN1C(=O)[C@H](CCCN=C(N)N)NC(=O)[C@@H]1CCCN1C(=O)[C@H](CO)NC(=O)[C@H](Cc1ccc(O)cc1)NC(=O)[C@@H]1CCCN1C(=O)[C@H](CCCN=C(N)N)NC(=O)[C@@H]1CCCN1C(=O)[C@H](CCCCN)NC(=O)CN)C(=O)N[C@@H](CCCN=C(N)N)C(=O)N[C@H](C(=O)O)C(C)C [GKPRPYSPRPSSHPRPIRV]
MIC [5]: 0.6 µM (≈ 1.31 µg/mL)
MIC [6]: 0.4 µM (≈ 0.874 µg/mL)
MIC [7]: 0.2 µM (≈ 0.437 µg/mL)
MIC [8]: 3 µM (≈ 6.55 µg/mL)
MIC [9]: 2 µM (≈ 4.37 µg/mL)

Structure (SMILES): CC[C@H](C)[C@H](NC(=O)[C@H](CO)NC(=O)CNC(=O)[C@@H](NC(=O)[C@@H](N)CCCN=C(N)N)[C@@H](C)CC)C(=O)N[C@@H](CC(C)C)C(=O)NCC(=O)N[C@@H](CCCN=C(N)N)C(=O)N[C@@H](CC(C)C)C(=O)N[C@@H](C)C(=O)N[C@@H](CCCCN)C(=O)NCC(=O)N[C@@H](CC(C)C)C(=O)N1CCC[C@H]1C(=O)N[C@H](C(=O)N[C@@H](CC(C)C)C(=O)N[C@@H](CCCCN)C(=O)N[C@@H](CO)C(=O)N[C@@H](Cc1c[nH]c2ccccc12)C(=O)N[C@H](C(=O)N[C@@H](CCCCN)C(=O)N[C@@H](CC(N)=O)C(=O)N[C@@H](CCCN=C(N)N)C(N)=O)[C@@H](C)CC)[C@@H](C)O [RIGSILGRLAKGLPTLKSWIKNR]
MIC [10]: 12.5 µM (≈ 32.2 µg/mL)
MIC [11]: 12.5 µM (≈ 32.2 µg/mL)
MIC [12]: 12.5 µM (≈ 32.2 µg/mL)
MIC [13]: 12.5 µM (≈ 32.2 µg/mL)
MIC [14]: 12.5 µM (≈ 32.2 µg/mL)
MIC [15]: ≥ 100 µM
MIC [16]: 6.25 µM (≈ 16.1 µg/mL)

Structure (SMILES): CC(C)C[C@H](NC(=O)[C@H](Cc1cnc[nH]1)NC(=O)[C@H](Cc1ccccc1)NC(=O)[C@H](Cc1ccccc1)NC(=O)[C@H](CCCN=C(N)N)NC(=O)[C@H](CCCCN)NC(=O)[C@H](CO)NC(=O)[C@H](CCCN=C(N)N)NC(=O)[C@H](Cc1cnc[nH]1)NC(=O)[C@H](CC(C)C)NC(=O)[C@H](Cc1ccccc1)NC(=O)[C@H](CCCCN)NC(=O)[C@H](CCCN=C(N)N)NC(=O)[C@H](Cc1ccc(O)cc1)NC(=O)CNC(=O)[C@@H](NC(=O)[C@H](Cc1cnc[nH]1)NC(=O)[C@H](CC(C)C)NC(=O)[C@@H](N)C(C)C)[C@@H](C)O)C(=O)N[C@@H](CCCN=C(N)N)C(=O)O [VLHTGYRKFLHRSKRFFHLR]
MIC [22]: 12.3 µM (≈ 32 µg/mL)
MIC [23]: 24.6 µM (≈ 64 µg/mL)
MIC [24]: ≥ 49.2 µM
MIC [25]: ≥ 49.2 µM
MIC [26]: ≥ 49.2 µM
MIC [27]: 24.6 µM (≈ 64 µg/mL)
MIC [28]: 24.6 µM (≈ 64 µg/mL)
MIC [29]: > 49.2 µM
MIC [30]: 49.2 µM (≈ 128 µg/mL)
MIC [31]: ≥ 49.2 µM
MIC [32]: ≥ 49.2 µM
MIC [33]: 24.6 µM (≈ 64 µg/mL)
MIC [34]: 24.6 µM (≈ 64 µg/mL)
MIC [19]: > 49.2 µM
MIC [35]: 197 µM (≈ 512 µg/mL)
MIC [36]: ≥ 49.2 µM
MIC [37]: ≥ 49.2 µM
MIC [38]: 24.6 µM (≈ 64 µg/mL)
MIC [39]: 12.3 µM (≈ 32 µg/mL)
MIC [40]: > 49.2 µM
MIC [41]: ≥ 49.2 µM
MIC [42]: 12.3 µM (≈ 32 µg/mL)
MIC [43]: ≥ 49.2 µM
MIC [44]: ≥ 49.2 µM

Now from value to molecule:

MIC [1]: ≥ 512 µM
MIC [2]: ≥ 512 µM
MIC [3]: ≥ 512 µM
MIC [4]: ≥ 128 µM
Structure (SMILES): CC(C)C[C@H](NC(=O)[C@H](CC(C)C)NC(=O)[C@H](CC(C)C)NC(=O)[C@@H]1CCCN1C(=O)[C@H](CC(C)C)NC(=O)[C@@H](N)Cc1ccccc1)C(=O)N[C@@H](C)C(=O)NCC(=O)N[C@@H](CC(C)C)C(=O)N1CCC[C@H]1C(=O)N[C@@H](CO)C(=O)N[C@@H](Cc1ccccc1)C(=O)N[C@@H](CC(C)C)C(=O)N[C@H]1CSSC[C@@H](C(=O)O)NC(=O)[C@H](CCCCN)NC(=O)[C@H](CCCCN)NC(=O)[C@H](Cc2ccccc2)NC(=O)[C@H](C(C)C)NC(=O)[C@H](CC(C)C)NC1=O [FLPLLLAGLPSFLCLVFKKC]

MIC [17]: 50 µM (≈ 90.3 µg/mL)
MIC [6]: 6.3 µM (≈ 11.4 µg/mL)
MIC [18]: 1.6 µM (≈ 2.89 µg/mL)
MIC [19]: 3 µM (≈ 5.42 µg/mL)
MIC [20]: 3 µM (≈ 5.42 µg/mL)
MIC [21]: 6.3 µM (≈ 11.4 µg/mL)
Structure (SMILES): CC[C@H](C)[C@H](NC(=O)[C@H](CCCCN)NC(=O)[C@H](CC(C)C)NC(=O)[C@H](CC(C)C)NC(=O)[C@@H]1CCCN1C(=O)CNC(=O)[C@H](CC(C)C)NC(=O)[C@H](CCCCN)NC(=O)CN)C(=O)N[C@@H](C)C(=O)N[C@@H](C)C(=O)N[C@@H](CCCCN)C(=O)N[C@H](C(=O)NCC(=O)N[C@@H](CO)C(=O)N[C@@H](CCCCN)C(=O)N[C@@H](CC(C)C)C(=O)N[C@@H](CC(C)C)C(N)=O)C(C)C [GKLGPLLKIAAKVGSKLL]
